“And” between values parts separate entries of the source, which are not always exact repeats. Equal entries are not always repeated.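 Five concentrations, 48 hours, 96-well plates. Here, GI50 denotes the concentration required for 50% inhibition of growth. TGI is the concentration that stops growth completely.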 Where a SMILES comes first, the peptide text is derived from it. [ ]: non-standard residue; d: D form. The star is where a group is joined. ξ: configuration not given here. dIva = CC[C@@](C)(N)C(=O)O; Aib = CC(C)(N)C(=O)O; ξP = O=C(O)C1CCCN1; βAla = NCCC(=O)O; X5 = OCN*

TGI and GI50 data for eight molecules are collected here from PubChem BioAssay (NCI).

Common to all, as to test: NCI-60 cell line screen, 48 h
Assay [1] has as its system NCI-H522 lung.
In assay [2] the test system is UACC-257 melanoma.
Assay [3] deals with DU-145 prostate.
Assay [4] has as its system SW-620 colon.
For assay [5], the system named is SN12C renal.
In assay [6] the test system is UO-31 renal.
In assay [7] the test system is SK-MEL-28 melanoma.
Assay [8] deals with 786-0 renal.
In assay [9] the test system is SF-268 CNS.
Assay [10] deals with HT29 colon.

Consider `CC(=O)Nc1cc(CN2CCCCC2)c(O)c2ncccc12`, for which the TGI in assay [1] was above 100 µM; in [2], 88.7 µM; in assay [3], 75.7 µM; in assay [4], above 100 µM; in assay [5], 70.9 µM; in assay [6] it was 46.8 µM. Besides, the TGI in assay [7] is above 100 µM; in [8], 40.9 µM; in assay [9], 79.2 µM; in [10], above 100 µM.

As to `C[C@H](c1ccc(Cl)cc1[N+](=O)[O-])N1C(=O)c2cc(I)ccc2NC(=O)[C@H]1c1ccc(Cl)cc1`, the GI50 was 8.94 µM in [1]; 33.9 µM in [2]; above 100 µM in assay [3]; above 100 µM in assay [4]; above 100 µM in assay [5]; 2.54 µM in [6]. The GI50 in assay [7], in [8], in assay [9] and in [10] was above 100 µM in each case. In addition, the TGI in assay [1], in [2], in [3], in [4], in [5] and in [6] was above 100 µM each time. For the same molecule, the TGI in assay [7], in assay [8], in assay [9] and in [10] was above 100 µM throughout.

As for `COc1ccc(-c2cc(=O)c3cccnc3[nH]2)cc1`, the TGI in assay [1], in [2], in assay [3], in assay [4], in assay [5] and in assay [6] was above 100 µM in each case. The TGI is above 100 µM in assay [7], above 100 µM in [8], above 100 µM in [9] and 38.4 µM in [10]. In addition, the GI50 in assay [8] is 56.5 µM.

As for `C=CC(=O)Nc1cccc(Nc2nc(Nc3ccc(N4CCN(C(C)=O)CC4)cc3OC)ncc2C(F)(F)F)c1`, the GI50 in assay [1] is 0.484 µM and 0.506 µM; in assay [2], 3.97 µM and 2.97 µM; in [3], 4.23 µM and 2.39 µM; in assay [4] it was 3.07 µM and 2.29 µM; in assay [5], 4.02 µM and 2.95 µM; in assay [6] it was 2.05 µM and 1.76 µM. The GI50 in [7] was 8.43 µM; in assay [8] it was 2.67 µM and 1.56 µM; in [9] it was 5.29 µM and 3.19 µM; in [10], 2.18 µM and 1.55 µM. Besides, the TGI in assay [1] was 6.73 µM and 7.66 µM; in assay [2] it was > 10 µM and 68.8 µM; in assay [3] it was > 10 µM and 17.3 µM; in assay [4], > 10 µM and 12.7 µM; in [5], > 10 µM and 54.8 µM; in assay [6], above 68.6 µM. Further, the TGI is above 93.1 µM in assay [7]; > 10 µM and 12.8 µM in assay [8]; > 10 µM and 26.2 µM in assay [9]; above 27.1 µM in assay [10].

Regarding `Nc1nc(N)c(-c2ccc(Cl)cc2)c(/C=C/c2ccc([N+](=O)[O-])cc2)n1`, the GI50 in [1] is 13.2 µM; in [2], 7.51 µM; in [3] it was 6.66 µM; in assay [4], 4.08 µM; in [5], 8.02 µM; in assay [6], 21.4 µM. For the same molecule, the GI50 in assay [7] is 26.6 µM; in [8], 5.81 µM; in assay [9], 8.32 µM; in [10], 4.99 µM. For the same molecule, the TGI in assay [1] was 41.9 µM; in [2] it was above 100 µM; in assay [3] it was above 100 µM; in assay [4] it was above 100 µM; in assay [5], above 100 µM; in assay [6] it was above 100 µM. Further, the TGI in [7] was above 100 µM; in assay [8], 44.9 µM; in assay [9], 93.9 µM; in assay [10], above 100 µM.

`CC(C)CC1NC(=O)C(C(C)C)NC(=O)CC(C)COC(=O)C(CC(C)C)N(C)C(=O)C(C(C)C)NC(=O)C(C(C)C)OC1=O` (stereo unspecified): the TGI in [1], in assay [2], in [3], in [4], in assay [5] and in assay [6] was above 50 µM in each case. The TGI in [7], in assay [8], in [9] and in assay [10] was above 50 µM each time.

`COn1cc(C(=O)N=C(SC)SC)c2ccccc21`: the GI50 was 13.1 µM in [1]; 18.2 µM in assay [2]; 30.9 µM in assay [3]; 34.8 µM in assay [4]; 22.4 µM in assay [5]; 40.9 µM in assay [6]. In addition, the GI50 was 80 µM in assay [7], 20.4 µM in assay [8], above 100 µM in assay [9] and 42.1 µM in assay [10]. Besides, the TGI in assay [1] is 42 µM; in [2], 59.2 µM; in [3], above 100 µM; in [4] it was above 100 µM; in [5] it was 74.3 µM; in [6], above 100 µM. Besides, the TGI in [7] was above 100 µM; in assay [8], 46.9 µM; in [9], above 100 µM; in [10] it was above 100 µM.

In the case of `CC[C@@](C)(NC(=O)[C@H](C)NC(=O)CCNC(=O)C(C)(C)NC(=O)[C@H](C)NC(=O)[C@@H]1CCCN1C(=O)[C@@](C)(CC)NC(=O)[C@H](Cc1ccccc1)NC(=O)C1CCCN1C(=O)C(C)(C)NC(=O)C1CCCN1C(=O)C(C)(C)NC(C)=O)C(=O)NCCC(=O)N[C@@H](CC(C)C)C(=O)NC(C)(C)C(=O)NCCC(=O)N[C@@H](CC(C)C)C(=O)NC(C)(C)C(=O)NC(C)(C)C(=O)N[C@@H](CC(C)C)C(=O)NCCC(=O)NCO` (stereo partly specified) (Ac-[Aib][ξP][Aib][ξP]F[dIva]PA[Aib][βAla]A[dIva][βAla]L[Aib][βAla]L[Aib][Aib]L[βAla]-X5), the GI50 in [1] is 0.0868 µM; in [2], 0.0579 µM; in [3], 0.125 µM; in assay [4] it was 0.149 µM; in assay [5], 0.119 µM; in assay [6] it was 0.179 µM. Also, the GI50 is 0.187 µM in assay [7], 0.203 µM in [8], 0.143 µM in [9] and 0.197 µM in assay [10]. For the same molecule, the TGI was found to be 0.304 µM in [1]; 0.21 µM in [2]; 0.338 µM in [3]; 0.403 µM in [4]; 0.373 µM in [5]; 0.391 µM in assay [6]. The TGI in assay [7] is 0.431 µM; in assay [8] it was 0.414 µM; in assay [9], 0.368 µM; in assay [10] it was 0.414 µM.
